This is an account of results in ChEMBL document CHEMBL1125846, “Reevaluating equilibrium and kinetic binding parameters for lipophilic drugs based on a structural model for drug interaction with biological membranes” (J Med Chem, 1991).

The conditions of series [1]: sarcoplasmic reticulum membrane.
Description: Partition coefficient of compound in to biological membranes
The species named for series [2] is Rattus norvegicus. The series can be described thus: Equilibrium dissociation constant based on aqueous concentration in rat smooth muscle. It counts as ADME, Muscle tissue.
The nature of series [3]: Partition coefficient of compound in to octanol/buffer. It counts as physicochemical. To be noted: octanol/water.
For series [4], the species on record is Rattus norvegicus. Briefly: Equilibrium dissociation constant based on membrane concentration in rat smooth muscle. In kind it is ADME, Muscle tissue.
The species named for series [5] is Rattus norvegicus. The series can be described thus: Equilibrium dissociation constant based on membrane concentration in rat cardiac muscle.

Molecules are shown by their SMILES.

As to `CCOC(=O)C1=C(COCCN)NC(C)=C(C(=O)OC)C1c1ccccc1Cl` (stereo not drawn) [AMLODIPINE], the figures for the Partition coefficient in series [1] and in series [3] were 19000 and 30, respectively. Also, the figures for the Kd in series [2] and in series [4] were 1.2 nM and 23000 nM, respectively.
As to `CN/C(=N/CCSCc1nc[nH]c1C)NC#N` [CIMETIDINE], in series [3], the Partition coefficient amounted to 1.
On to `COC(=O)C1=C(C)NC(C)=C(C(=O)OC)C1c1ccccc1[N+](=O)[O-]` [NIFEDIPINE], for which the results for the Kd in series [2] and in series [4] were 0.41 nM and 23000 nM, respectively.
As to `COCCOC(=O)C1=C(C)NC(C)=C(C(=O)OC(C)C)C1c1cccc([N+](=O)[O-])c1` (stereo not drawn) [NIMODIPINE], the Partition coefficient in series [1] stood at 6300; in series [3], 730. Besides, the dissociation constant Kd in series [2] is 0.11 nM; in series [4], 690 nM.
`COC(=O)C1=C(C)NC(C)=C(C(=O)OCC(C)C)C1c1ccccc1[N+](=O)[O-]` (stereo not drawn) [NISOLDIPINE]: the Partition coefficient in series [1] is given as 13000; in series [3], 40. The equilibrium dissociation constant (Kd) in series [5] was determined as 1800 nM; in series [2], 0.14 nM.
For the compound `CC(C)NCC(O)COc1cccc2ccccc12` (stereo not drawn) [PROPRANOLOL], the Partition coefficient in series [1] worked out at 1200; in series [3] it was 18.
Compound `CC(C)(C)NC[C@H](O)COc1nsnc1N1CCOCC1` [TIMOLOL] gave a Partition coefficient in series [3] of 0.7.
